Source: US12129221B2, “Difluoro phenyl amide RIP1 inhibitor” (SIRONAX LTD, priority 2018, dated 2024)
Where two headings read alike, the source gives them in different places.

Columns and labels:
ferroptosis = assay: Ferroptosis inhibitor activity; type: cell-based; conditions: 1 uM threshold activity extrapolated
Excerpt: Ferroptosis Inhibitor Activity 1 Um Threshold Activity Extrapolated

Human RIP1 kinase = Human RIP1 kinase (Homo sapiens (Human), UniProt Q13546); assay: Human RIP1 kinase assay; type: biochemical; conditions: given as bound or range
Excerpt: (§1) Representative IC50 of hRIP1 Kinase Assay Correlated with Our IC50 of Cell Necrosis Assay: […]

necrosis = assay: Necrosis inhibitory activity (cell necrosis / cell viability assay); type: cell-based
Excerpt: Necrosis Inhibitory Activity
as §1

[1] = Prodrug enhanced metabolic stability: hepatocyte (H); type: in vitro ADME; design: key: +, Extrapolated
Excerpt: (§2) Prodrug Enhanced Metabolic Stability: Liver Microsome (L), Hepatocyte (H) and PK

[2] = Prodrug enhanced metabolic stability: PK; type: in vivo; design: key: +, Extrapolated
Excerpt: as §2

[3] = Prodrug enhanced metabolic stability: liver microsome (L); type: in vitro ADME; design: key: +, Extrapolated
Excerpt: as §2

[4] = Necrosis Inhibitory Activity, given as range, read-out: EC50
[5] = cell necrosis assay, given as bound or range, read-out: Cell viability assay, EC50
[6] = Active Pro-drugs, read-out: EC50

Chain of Human RIP1 kinase (Q13546 whole entry): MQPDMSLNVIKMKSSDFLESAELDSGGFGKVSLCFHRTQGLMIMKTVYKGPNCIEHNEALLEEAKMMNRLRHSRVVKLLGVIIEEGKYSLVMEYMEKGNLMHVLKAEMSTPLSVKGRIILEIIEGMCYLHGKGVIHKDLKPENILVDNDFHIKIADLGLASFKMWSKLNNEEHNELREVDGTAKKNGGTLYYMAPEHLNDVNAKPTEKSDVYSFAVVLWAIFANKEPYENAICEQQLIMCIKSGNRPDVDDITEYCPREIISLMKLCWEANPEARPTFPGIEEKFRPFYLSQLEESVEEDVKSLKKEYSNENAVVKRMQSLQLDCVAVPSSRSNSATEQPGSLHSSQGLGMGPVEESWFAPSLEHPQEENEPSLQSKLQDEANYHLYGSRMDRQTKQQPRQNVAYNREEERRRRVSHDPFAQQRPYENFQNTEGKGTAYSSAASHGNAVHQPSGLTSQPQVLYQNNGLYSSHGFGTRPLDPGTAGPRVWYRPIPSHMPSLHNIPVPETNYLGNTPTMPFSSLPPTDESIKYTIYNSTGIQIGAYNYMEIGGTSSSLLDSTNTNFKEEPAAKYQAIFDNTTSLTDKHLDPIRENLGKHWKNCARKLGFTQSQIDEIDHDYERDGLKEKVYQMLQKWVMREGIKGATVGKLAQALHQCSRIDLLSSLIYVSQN

Compound | EC50 (ferroptosis) [nM] | IC50 (Human RIP1 kinase) [nM] | H [1] | PK [2] | L [3] | EC50 (necrosis; [4]) [nM] | EC50 (necrosis; [5]) [nM] | EC50(nM) (necrosis; Active Pro-drugs) | EC50 (necrosis; [6]) [nM]
CCC(C)(C)C(=O)N(Cc1ccccc1)OC(=O)N1CCCCC1 [Compound 56, N-benzyl-2,2-dimethyl-N-((piperidine-1-carbonyl)oxy)butanamide] | – | – | + | + | + | – | – | weak | –
CCC(C)(C)C(=O)N(Cc1ccccc1)OC(=O)N1CCC(N2CCCCC2)CC1 [Compound 57, N-(([1,4′-bipiperidine]-1′-carbonyl)oxy)-N-benzyl-2,2-dimethylbutanamide] | – | – | + | + | + | – | – | weak | –
CCC(C)(C)C(=O)N(Cc1ccccc1)OC(=O)Oc1ccccc1 [Compound 58, N-benzyl-2,2-dimethyl-N-((phenoxycarbonyl)oxy)butanamide] | – | – | + | + | + | – | – | – | 45.1
CCC(C)(C)C(=O)N(Cc1ccccc1)OC(=O)OCC(C)C [Compound 59, N-benzyl-N-((isobutoxycarbonyl)oxy)-2,2-dimethylbutanamide] | – | – | + | + | + | – | – | – | 44.8
CCC(C)(C)C(=O)N(Cc1ccccc1)OC(=O)c1cccnc1 [Compound 60, N-benzyl-2,2-dimethyl-N-(nicotinoyloxy)butanamide] | – | – | + | + | + | – | – | – | 83.5
CCC(C)(C)C(=O)N(Cc1ccccc1)OCOC(=O)C(C)(C)C [Compound 63, ((N-benzyl-2,2-dimethylbutanamido)oxy)methyl pivalate] | – | – | + | + | + | – | – | – | 62.9
CCC(C)(C)C(=O)N(Cc1ccccc1)OP(=O)(N(C)C)N(C)C [Compound 68, N-benzyl-N-((bis(dimethylamino)phosphoryl)oxy)-2,2-dimethylbutanamide] | – | – | + | + | + | – | – | – | 1620
CCC(C)(C)C(=O)N(Cc1ccccc1)OCOP(=O)(OCc1ccccc1)OCc1ccccc1 [Compound 69, dibenzyl (((N-benzyl-2,2-dimethylbutanamido)oxy)methyl) phosphate] | – | – | + | + | + | – | – | weak | –
CCC(C)(C)C(=O)N(Cc1ccccc1)OP(=O)(OC)OC [Compound 70, dimethyl ((N-benzyl-2,2-dimethylbutanamido)oxy)phosphonate] | – | – | + | + | + | – | – | – | 1700
CCC(C)(C)C(=O)N(Cc1ccccc1)OC(=O)CCCC[C@@H]1SC[C@@H]2NC(=O)N[C@@H]21 [Compound 72, N-benzyl-2,2-dimethyl-N-((5-((3aS,4S,6aR)-2-oxohexahydro-1H-thieno[3,4-d]imidazol-4-yl)pentanoyl)oxy)butanamide] | – | – | + | + | + | – | – | – | 159
CCC(C)(C)C(=O)N(Cc1ccccc1)OCc1ccc(O)cc1 [Compound 73, N-benzyl-N-((4-hydroxybenzyl)oxy)-2,2-dimethylbutanamide] | – | – | + | + | + | – | – | – | 489
CCC(C)(C)C(=O)N(Cc1ccccc1)OC(=O)C(C)(C)C [Compound 77, N-benzyl-2,2-dimethyl-N-(pivaloyloxy)butanamide] | – | – | + | + | + | – | – | – | 6830
CCC(C)(C)C(=O)N(Cc1ccccc1)OC(=O)[C@@H](NC(=O)OC(C)(C)C)C(C)C [Compound 79, tert-butyl (S)-(1-((N-benzyl-2,2-dimethylbutanamido)oxy)-3-methyl-1-oxobutan-2-yl)carbamate] | – | – | + | + | + | – | – | – | 1430
CCC(C)(C)C(=O)N(Cc1ccccc1)OC(=O)[C@@H]1CCCN1C(=O)OC(C)(C)C [Compound 81, tert-butyl (S)-2-(((N-benzyl-2,2-dimethylbutanamido)oxy)carbonyl)pyrrolidine-1-carboxylate] | – | – | + | + | + | – | – | – | 3250
CCC(C)(C)C(=O)N(Cc1ccccc1)OC(=O)CN(C)C [Compound 82, N-benzyl-N-((dimethylglycyl)oxy)-2,2-dimethylbutanamide] | – | – | + | + | + | – | – | – | 116

The next lines start with results.

EC50 (ferroptosis) [nM] | IC50 (Human RIP1 kinase) [nM] | H [1] | PK [2] | L [3] | Compound | EC50 (necrosis; [4]) [nM] | EC50 (necrosis; [5]) [nM] | EC50(nM) (necrosis; Active Pro-drugs) | EC50 (necrosis; [6]) [nM]
1000 to 10000 | < 100 | – | – | – | CCC(C)(C)C(=O)N(O)Cc1ccc(Cl)c(F)c1 [Compound 16, N-(4-chloro-3-fluorobenzyl)-N-hydroxy-2,2-dimethylbutanamide] | 1 to 1000 | 1 to 1000 | – | –
1000 to 10000 | < 100 | – | – | – | CCC(C)(C)C(=O)N(O)Cc1ccc2c(c1)CCC2 [Compound 20, N-((2,3-dihydro-1H-inden-5-yl)methyl)-N-hydroxy-2,2-dimethylbutanamide] | 1 to 1000 | < 100 | – | –
1000 to 10000 | < 100 | – | – | – | CCC(C)(C)C(=O)N(O)Cc1ccsc1 [Compound 23, N-hydroxy-2,2-dimethyl-N-(thiophen-3-ylmethyl)butanamide] | 1 to 1000 | 1 to 1000 | – | –
1000 to 10000 | 100 to 1000 | – | – | – | CCC(C)(C)C(=O)N(O)Cc1cnc(C)s1 [Compound 24, N-hydroxy-2,2-dimethyl-N-((2-methylthiazol-5-yl)methyl)butanamide] | 1 to 1000 | 1 to 1000 | – | –
1000 to 10000 | 100 to 1000 | – | – | – | O=C(N(O)Cc1ccccc1)C1(C(F)(F)F)CCC1 [Compound 35, N-benzyl-N-hydroxy-1-(trifluoromethyl)cyclobutane-1-carboxamide] | 1 to 1000 | 1 to 1000 | – | –
– | – | + | + | + | [2H]CC([2H])C(C)(C)C(=O)N(Cc1cc(F)cc(F)c1)OC(=O)OCC (stereo not drawn) [Compound 61, N-(3,5-difluorobenzyl)-N-((ethoxycarbonyl)oxy)-2,2-dimethylbutanamide-3,4-d2] | – | – | – | 128
– | – | + | + | + | [2H]CC([2H])C(C)(C)C(=O)N(Cc1cc(F)cc(F)c1)OC(=O)c1cccnc1 (stereo not drawn) [Compound 62, N-(3,5-difluorobenzyl)-2,2-dimethyl-N-(nicotinoyloxy)butanamide-3,4-d2] | – | – | – | 45.3
– | – | + | + | + | [2H]CC([2H])C(C)(C)C(=O)N(Cc1cc(F)cc(F)c1)OCOC(=O)C(C)(C)C (stereo not drawn) [Compound 64, ((N-(3,5-difluorobenzyl)-2,2-dimethylbutanamido-3,4-d2)oxy)methyl pivalate] | – | – | – | 91.4
– | – | + | + | + | [2H]CC([2H])C(C)(C)C(=O)N(Cc1cc(F)cc(F)c1)OC(=O)OCCOC (stereo not drawn) [Compound 65, N-(3,5-difluorobenzyl)-N-(((2-methoxyethoxy)carbonyl)oxy)-2,2-dimethylbutanamide-3,4-d2] | – | – | – | 37.2
– | – | + | + | + | [2H]CC([2H])C(C)(C)C(=O)N(Cc1cc(F)cc(F)c1)OC(=O)OCCOCCOC (stereo not drawn) [Compound 66, N-(3,5-difluorobenzyl)-N-(((2-(2-methoxyethoxy)ethoxy)carbonyl)oxy)-2,2-dimethylbutanamide-3,4-d2] | – | – | – | 46
– | – | + | + | + | [2H]CC([2H])C(C)(C)C(=O)N(Cc1cc(F)cc(F)c1)OC(=O)OCCOCCOCCOC (stereo not drawn) [Compound 67, N-((2,5,8,11-tetraoxadodecanoyl)oxy)-N-(3,5-difluorobenzyl)-2,2-dimethylbutanamide-3,4-d2] | – | – | – | 58.5
– | – | + | + | + | CCC(C)(C)C(=O)N(Cc1ccccc1)OP(=O)(O)O [Compound 71, ((N-benzyl-2,2-dimethylbutanamido)oxy)phosphonic acid] | – | – | – | 28.7
1000 to 10000 | – | + | + | + | CC(C)(C(=O)N(O)Cc1ccccc1)C(F)F [Compound 74, N-benzyl-3,3-difluoro-N-hydroxy-2,2-dimethylpropanamide] | 1 to 1000 | – | – | –
1000 to 10000 | – | + | + | + | CC(C)(C(=O)N(O)Cc1cc(F)cc(F)c1)C(F)F [Compound 75, N-(3,5-difluorobenzyl)-3,3-difluoro-N-hydroxy-2,2-dimethylpropanamide] | 1 to 1000 | – | – | –
1000 to 10000 | – | + | + | + | CC(C)(CCF)C(=O)N(O)Cc1cc(F)cc(F)c1 [Compound 76, N-(3,5-difluorobenzyl)-4-fluoro-N-hydroxy-2,2-dimethylbutanamide] | 1000 to 10000 | – | – | –
– | – | + | + | + | CCC(C)(C)C(=O)N(Cc1ccccc1)OC(=O)[C@@H](N)C(C)C [Compound 80, N-((L-valyl)oxy)-N-benzyl-2,2-dimethylbutanamide] | – | – | – | 24.2
– | – | + | + | + | CCC(C)(C)C(=O)N(Cc1ccccc1)OC(=O)[C@@H](N)CO [Compound 83, N-((L-seryl)oxy)-N-benzyl-2,2-dimethylbutanamide] | – | – | – | 898
– | – | + | + | + | CCOC(=O)ON(Cc1cc(F)cc(F)c1)C(=O)C(C)(C)CC [Compound 87, N-(3,5-difluorobenzyl)-N-((ethoxycarbonyl)oxy)-2,2-dimethylbutanamide] | – | – | – | 67.8
